In patent US9023821B2, “Use of MicroRNA for treating diseases associated with a dysfunction of the cilia in multiciliated epithelial cells” (Centre National de la Recherche Scientifique, priority 2009, dated 2015):

Experiments:
[1] = system: basal cells and pyramidal cells of the airway epithelium; experiment: miRNA expression in sorted basal cells versus pyramidal cells (ciliated + secretory), HTS and Agilent chips; design: species or system human; details: for Modulation of expression of the miRNAs in pyramidal cells (323(−)) relative to basal cells 323(+): HTS and Agilent chips; for Intensity of the level of expression in log2 in pyramidal cells (323(−)): pyramidal cells (ciliated + secretory)
Protocol: After dissociation of the stroma of nasal polyps, the epithelial cells (about 20.10^6) are incubated in PBS-BSA-EDTA for 30 min and then incubated with labeled antibody CD151-PE and anti-TF (tissue factor)-FITC for 20 min, 4° C. (see Hajj, R. et al., Stem Cells 25, 139-148 (2007)). After washing twice, the cells are taken up in PBS-EDTA and incubated with DAPI for labeling the cells whose integrity has been altered.
Cell sorting was carried out on the FACSAria sorter (BD Biosciences) equipped with 3 lasers, blue, red and violet. Dead cells, aggregates and double cells were excluded. The doubly positive population of basal cells (CD151+/FT+) and the negative population of cylindrical cells (containing ciliated cells and mucus-secreting cells) (CD151−/FT−) were selected and sorted at a rate of 5000 events/s ([…]). The purity and identity of the sorted cells were then verified by cytometry and immunocytochemistry.
Like the native airway epithelium, the model of differentiation in vitro used in these tests consists of basal cells, ciliated cells and mucus-secreting cells. In order to identify the repertoires of the miRNAs specific to each of the cellular types, the inventors used cell sorting by flow cytometry by means of specific markers (Hajj, R. et al. 2007). Using this technique, adult airway progenitor cells (corresponding a priori to basal cells) were isolated, selected and sorted (such cells appear doubly positive for tetraspanin CD151 and for the tissue factor) from the pyramidal cells (i.e. ciliated cells and mucus-secreting cells) which appear negative for these same markers. These were purified from polyps or from nasal conchae obtained from 3 separate donors.
After extracting the total RNAs, the expression profiles of the miRNAs were established by means of Agilent® commercial chips or by high-throughput sequencing (HTS). […] For the first time, the inventors thus attribute a repertoire of expression of the miRNAs specifically to separate cellular types of the airway epithelium during differentiation.

[2] = system: human airway epithelial cells (HAECs); experiment: High-throughput sequencing (HTS) of miRNAs at four stages of differentiation of HAECs; details: for Modulation (ratio of the level of intensity of expression in log2 in two stages of differentiation) measured by high-throughput sequencing, D7 − D0 / Modulation (ratio of the level of intensity of expression in log2 in two stages of differentiation) measured by high-throughput sequencing, FC − D7 / Modulation (ratio of the level of intensity of expression in log2 in two stages of differentiation) measured by high-throughput sequencing, WD − D0 / Modulation (ratio of the level of intensity of expression in log2 in two stages of differentiation) measured by high-throughput sequencing, WD − FC / Level of intensity of expression in log2 measured by high-throughput sequencing, D0 / Level of intensity of expression in log2 measured by high-throughput sequencing, D7 / Level of intensity of expression in log2 measured by high-throughput sequencing, FC / Level of intensity of expression in log2 measured by high-throughput sequencing, WD: Table VI; for Level of intensity of expression in log2 At the differentiated stage (WD) measured in HTS: healthy human airway epithelial tissue; for Level of intensity of expression in log2 measured by high-throughput sequencing, D0: stage D0; for Level of intensity of expression in log2 measured by high-throughput sequencing, D7: stage D7; for Level of intensity of expression in log2 measured by high-throughput sequencing, FC: stage FC; for Level of intensity of expression in log2 At the differentiated stage (WD) measured in HTS / Level of intensity of expression in log2 measured by high-throughput sequencing, WD: stage WD
Description: The total RNAs were extracted from HAECs cultivated at the air-liquid interface at four stages of differentiation: ALI-D0 (0 day), ALI-D7 (7 days), ALI-FC (during appearance of the first cilia at about 14 days) and ALI-WD (wholly differentiated at about 21 days). The cells are lysed in reagent with Trizol® (Invitrogen). The total RNAs containing small RNAs and microRNAs are purified on Qiagen RNEasy columns (Qiagen) according to the supplier's instructions.
The total RNAs containing small RNAs and microRNAs are isolated as before. The procedure is based on the Applied Biosystems Ligase-Enhanced Genome Detection technology (LEGenD™); the SOLiD™ Small RNA Expression kit (Applied Biosystems, France) was used. With this method it is possible to convert the small RNAs of a sample into a library of double-stranded DNA; it was developed by Applied Biosystems SOLiD™ System for a new generation of high-throughput sequencing.
The high-throughput sequencing of the microRNAs was carried out according to the supplier's recommendations. Briefly, the total RNAs containing the small RNAs are hybridized (65° C., 10 min, then at 16° C., 5 min) and ligated (16° C., 2-16 h in a thermocycler) with the Adaptor Mix A for producing a matrix for sequencing the 5′ end of the small RNAs, or with the Adaptor Mix B for sequencing the 3′ end. The samples are then reverse-transcribed (42° C., 30 min) to synthesize the complementary DNA (cDNA). The library of small RNAs is amplified by PCR and after migration on polyacrylamide gel the amplified small RNAs are cut out and extracted from the gel according to their size (length of about 105-150 bases, according to the supplier's instructions), eluted and resuspended in nuclease-free water. The concentration of nucleic acids is then measured and normalized before proceeding with preparation of the samples for sequencing.
For each microRNA sequenced, the number of sequences of the 5p strand and of the 3p strand of the microRNA was normalized to 10^6 sequences and converted to percentage abundance of expression for each of the microRNAs. The data were then normalized according to a linear model and an empirical Bayesian method using software R. For subsequent analyses, only the microRNAs were retained for which the percentage expression (or abundance) is greater than 1% of the total of the microRNAs in at least one culture condition, with a |Log2 Ratio| below 0.5 and an adjusted P-value below 0.05.

[3] = system: human airway epithelial cells (HAECs); experiment: Agilent miRNA chips, miRNA expression at four stages of differentiation of HAECs; details: for Modulation (ratio of the level of intensity of expression in log2 in two stages of differentiation) measured with the Agilent chips, D7 − D0 / Modulation (ratio of the level of intensity of expression in log2 in two stages of differentiation) measured with the Agilent chips, FC − D7 / Modulation (ratio of the level of intensity of expression in log2 in two stages of differentiation) measured with the Agilent chips, WD − D0 / Modulation (ratio of the level of intensity of expression in log2 in two stages of differentiation) measured with the Agilent chips, WD − FC / Level of intensity of expression in log2 measured with the Agilent chips, D0 / Level of intensity of expression in log2 measured with the Agilent chips, D7 / Level of intensity of expression in log2 measured with the Agilent chips, FC / Level of intensity of expression in log2 measured with the Agilent chips, WD: Table VI; for Modulation (ratio of the level of intensity of expression in log2 at two stages of differentiation), FC − D7 / Modulation (ratio of the level of intensity of expression in log2 at two stages of differentiation), WD − FC: Agilent miRNA chips, Table V; for Level of intensity of expression in log2 measured with the Agilent chips, D0: stage D0; for Level of intensity of expression in log2 measured with the Agilent chips, D7: stage D7; for Level of intensity of expression in log2 measured with the Agilent chips, FC: stage FC; for Level of intensity of expression in log2 measured with the Agilent chips, WD: stage WD
Description: In parallel with the high-throughput sequencing of the microRNAs, the repertoire of expression of the microRNAs (microRNAome) is investigated using the technology of Agilent® microRNA chips. For this, RNA samples from the same patients as before were used, labeled and hybridized on Agilent® miRNA chips (Human miRNA Microarray v2, containing 866 human miRNAs and 89 human viral miRNAs, i.e. all the human miRNAs contained and referenced in Sanger miRBase v.12.0, Agilent Technologies, France) using the “miRNA labeling and hybridization” kit, following the supplier's instructions (Agilent Technologies).
The inventors then used the Agilent miRNA chips to investigate the repertoire of expression of the miRNAs of the human airway epithelium and compare the results obtained in high-throughput sequencing with those obtained with Agilent® commercial miRNA chips.

hsa-let-7c: human miRNA, SEQ ID No. 159 (UGAGGUAGUAGGUUGUAUGGUU; expressed or natural sequence; listed as Homo sapiens)
Modulation of expression of the miRNAs in pyramidal cells (323(−)) relative to basal cells 323(+) [1]: −0.48 | Intensity of the level of expression in log2 in basal cells (323(+)) [1]: 9.43 log2 | Intensity of the level of expression in log2 in pyramidal cells (323(−)) [1]: 8.95 log2 | Modulation (ratio of the level of intensity of expression in log2 in two stages of differentiation) measured by high-throughput sequencing, D7 − D0 [2]: 0.14 log2 | Modulation (ratio of the level of intensity of expression in log2 in two stages of differentiation) measured by high-throughput sequencing, FC − D7 [2]: 0.21 log2 | Modulation (ratio of the level of intensity of expression in log2 in two stages of differentiation) measured by high-throughput sequencing, WD − D0 [2]: 0.90 log2 | Modulation (ratio of the level of intensity of expression in log2 in two stages of differentiation) measured by high-throughput sequencing, WD − FC [2]: 0.55 log2 | Level of intensity of expression in log2 At the differentiated stage (WD) measured in HTS [2]: 7.86 log2 | Level of intensity of expression in log2 measured by high-throughput sequencing, D0 [2]: 6.96 log2 | Level of intensity of expression in log2 measured by high-throughput sequencing, D7 [2]: 7.10 log2 | Level of intensity of expression in log2 measured by high-throughput sequencing, FC [2]: 7.31 log2 | Level of intensity of expression in log2 measured by high-throughput sequencing, WD [2]: 7.86 log2 | Modulation (ratio of the level of intensity of expression in log2 in two stages of differentiation) measured with the Agilent chips, D7 − D0 [3]: 1.61 log2 | Modulation (ratio of the level of intensity of expression in log2 at two stages of differentiation), FC − D7 [3]: −0.71 log2 | Modulation (ratio of the level of intensity of expression in log2 in two stages of differentiation) measured with the Agilent chips, FC − D7 [3]: −0.71 log2 | Modulation (ratio of the level of intensity of expression in log2 in two stages of differentiation) measured with the Agilent chips, WD − D0 [3]: 1.05 log2 | Modulation (ratio of the level of intensity of expression in log2 at two stages of differentiation), WD − FC [3]: 0.14 log2 | Modulation (ratio of the level of intensity of expression in log2 in two stages of differentiation) measured with the Agilent chips, WD − FC [3]: 0.14 log2 | Level of intensity of expression in log2 measured with the Agilent chips, D0 [3]: 9.10 log2 | Level of intensity of expression in log2 measured with the Agilent chips, D7 [3]: 10.71 log2 | Level of intensity of expression in log2 measured with the Agilent chips, FC [3]: 10.00 log2 | Level of intensity of expression in log2 measured with the Agilent chips, WD [3]: 10.15 log2

hsa-let-7e: human miRNA, SEQ ID No. 160 (UGAGGUAGGAGGUUGUAUAGUU; expressed or natural sequence; listed as Homo sapiens)
Modulation of expression of the miRNAs in pyramidal cells (323(−)) relative to basal cells 323(+) [1]: −1.42 | Intensity of the level of expression in log2 in basal cells (323(+)) [1]: 8.24 log2 | Intensity of the level of expression in log2 in pyramidal cells (323(−)) [1]: 6.82 log2 | Modulation (ratio of the level of intensity of expression in log2 in two stages of differentiation) measured by high-throughput sequencing, D7 − D0 [2]: 0.38 log2 | Modulation (ratio of the level of intensity of expression in log2 in two stages of differentiation) measured by high-throughput sequencing, FC − D7 [2]: −0.27 log2 | Modulation (ratio of the level of intensity of expression in log2 in two stages of differentiation) measured by high-throughput sequencing, WD − D0 [2]: 0.18 log2 | Modulation (ratio of the level of intensity of expression in log2 in two stages of differentiation) measured by high-throughput sequencing, WD − FC [2]: 0.07 log2 | Level of intensity of expression in log2 At the differentiated stage (WD) measured in HTS [2]: 7.60 log2 | Level of intensity of expression in log2 measured by high-throughput sequencing, D0 [2]: 7.42 log2 | Level of intensity of expression in log2 measured by high-throughput sequencing, D7 [2]: 7.80 log2 | Level of intensity of expression in log2 measured by high-throughput sequencing, FC [2]: 7.53 log2 | Level of intensity of expression in log2 measured by high-throughput sequencing, WD [2]: 7.60 log2 | Modulation (ratio of the level of intensity of expression in log2 in two stages of differentiation) measured with the Agilent chips, D7 − D0 [3]: 1.38 log2 | Modulation (ratio of the level of intensity of expression in log2 at two stages of differentiation), FC − D7 [3]: −0.57 log2 | Modulation (ratio of the level of intensity of expression in log2 in two stages of differentiation) measured with the Agilent chips, FC − D7 [3]: −0.57 log2 | Modulation (ratio of the level of intensity of expression in log2 in two stages of differentiation) measured with the Agilent chips, WD − D0 [3]: 0.95 log2 | Modulation (ratio of the level of intensity of expression in log2 at two stages of differentiation), WD − FC [3]: 0.15 log2 | Modulation (ratio of the level of intensity of expression in log2 in two stages of differentiation) measured with the Agilent chips, WD − FC [3]: 0.15 log2 | Level of intensity of expression in log2 measured with the Agilent chips, D0 [3]: 8.53 log2 | Level of intensity of expression in log2 measured with the Agilent chips, D7 [3]: 9.91 log2 | Level of intensity of expression in log2 measured with the Agilent chips, FC [3]: 9.34 log2 | Level of intensity of expression in log2 measured with the Agilent chips, WD [3]: 9.48 log2
